Values joined by “and” are separate entries in the source; they are usually repeats but may differ in a detail not shown here. Equal values may be shown once. Read-outs that look alike come from different tables or passages of the source. Where only a bound is given, the exact number is not on record here.

The target in experiment [1] is T1, full length human Dynamin I (Homo sapiens, UniProt Q05193).
T1 construct: full length human Dynamin I expressed in Sf21 insect cells; made in house; host or cells: Sf21 insect cells
T1 sequence (Q05193 1-864): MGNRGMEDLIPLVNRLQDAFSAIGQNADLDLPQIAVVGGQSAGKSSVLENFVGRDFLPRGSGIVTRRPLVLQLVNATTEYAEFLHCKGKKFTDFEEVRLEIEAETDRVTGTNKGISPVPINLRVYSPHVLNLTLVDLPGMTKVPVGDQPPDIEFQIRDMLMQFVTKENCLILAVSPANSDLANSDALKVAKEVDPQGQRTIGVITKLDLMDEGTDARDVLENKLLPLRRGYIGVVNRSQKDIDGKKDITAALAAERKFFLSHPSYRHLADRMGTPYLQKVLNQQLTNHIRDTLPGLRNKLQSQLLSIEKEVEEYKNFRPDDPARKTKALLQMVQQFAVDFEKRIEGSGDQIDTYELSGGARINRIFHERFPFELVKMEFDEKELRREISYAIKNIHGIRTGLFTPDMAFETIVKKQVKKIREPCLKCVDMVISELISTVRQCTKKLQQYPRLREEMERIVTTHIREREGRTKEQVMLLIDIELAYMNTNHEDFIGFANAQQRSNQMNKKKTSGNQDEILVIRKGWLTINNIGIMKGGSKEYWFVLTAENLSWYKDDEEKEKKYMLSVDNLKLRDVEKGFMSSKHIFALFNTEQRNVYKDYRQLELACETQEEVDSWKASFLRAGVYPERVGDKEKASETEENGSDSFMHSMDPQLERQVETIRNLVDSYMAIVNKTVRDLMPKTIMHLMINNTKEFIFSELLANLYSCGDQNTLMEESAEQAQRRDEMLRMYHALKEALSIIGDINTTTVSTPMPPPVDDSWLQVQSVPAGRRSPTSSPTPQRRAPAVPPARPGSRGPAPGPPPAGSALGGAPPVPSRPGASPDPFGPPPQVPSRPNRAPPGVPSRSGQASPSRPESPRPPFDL
The experiment in a line: Dynamin GTPase activity, Malachite Green phosphate detection assay. In kind it is biochemical. Here is the method:
Dynamin GTPase activity was determined in vitro using the Malachite Green phosphate detection absorbance‐based assay within a 96‐well plate format as described previously. The enzyme source was full length human Dynamin I expressed in Sf21 insect cells and affinity‐purified on GST‐Amph2‐SH3 (rat Amphiphysin 2 (494–588)).^[ [56] ^]

Experiment [2] addresses T2, clathrin heavy chain NTD (amino acids 1–364) – amphiphysin 1 B/C domain protein–protein interaction (NTD‐PPI) (Homo sapiens, UniProt Q00610).
T2 construct: GST‐tagged clathrin heavy chain NTD (amino acids 1–364); made in house
T2 sequence (Q00610 1-364): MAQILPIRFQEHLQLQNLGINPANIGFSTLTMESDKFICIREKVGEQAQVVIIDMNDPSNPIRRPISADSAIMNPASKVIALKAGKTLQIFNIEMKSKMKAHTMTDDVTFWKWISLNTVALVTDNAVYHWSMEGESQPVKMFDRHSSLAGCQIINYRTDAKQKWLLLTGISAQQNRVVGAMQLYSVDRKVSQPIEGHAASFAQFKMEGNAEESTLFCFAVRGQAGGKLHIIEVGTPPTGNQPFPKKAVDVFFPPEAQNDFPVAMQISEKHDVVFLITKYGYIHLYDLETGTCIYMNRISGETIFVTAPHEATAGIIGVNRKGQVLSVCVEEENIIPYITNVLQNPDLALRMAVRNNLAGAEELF
The experiment in a line: ELISA-based clathrin inhibitor binding assay (NTD-PPI). On the procedure: The clathrin inhibitor assay was based inhibition of protein–protein interaction (PPI) between clathrin and amphiphysin as described in our previous report.^[ [45], [54] ^] Bacterially expressed recombinant purified His6‐tagged amphiphysin 1 B/C domain (which comprises both the clathrin and the AP‐2 binding sites, amino acids 250‐578^[ [55] ^]) in screening buffer (20 mM HEPES, pH 7.4, 50 mM NaCl, 1 mM DTT, 1 mM PMSF) was added to a 384 well ELISA plate (Corning Maxisorp 3700) and bound to the plastic for 1 h at room temperature. […] Following extensive washes (with 20 mM HEPES, pH 7.4, 50 mM NaCl, 0.05% Tween 20), chemical compounds diluted in DMSO (10 μL) were added and incubated together with bacterially expressed recombinant GST‐tagged clathrin heavy chain NTD (amino acids 1–364) for 1 h at room temperature in screening buffer. After 3 washes, horseradish peroxidase‐coupled anti‐GST antibodies were added in screening buffer and the plate incubated for 40 min at room temperature. Following additional washes, 50 μL TMB (3,3′,5,5′‐tetramethylbenzidine) (Pierce Biotechnology) chromogenic substrate of horseradish peroxidase was added, and the plate was incubated for 10 min before the reaction was terminated by adding 50 μL 1N sulfuric acid to produce a yellow colour. The amount of bound protein was determined by spectrophotometric measurement in a plate reader. Relative binding was calculated as a percentage of DMSO control.
On the technique in general: An ELISA detects its analyte on a solid surface through an enzyme-linked reagent.

Experiment [3] deals with transferrin uptake (CME) in U2OS osteosarcoma cells. In words: Clathrin-mediated endocytosis assay: transferrin (Tfn) uptake in U2OS cells. The conditions noted are these: for IC50 / inhibition at 5 µM / inhibition at 50 µM: Homo sapiens, U2OS; for IC50: Table 5, inhibition of transferrin‐red uptake in U2OS cells, '–'/NA = not active at 100 μM; for inhibition at 5 µM: read-out: 2-point CME (% Inhibition) 5 µM; for inhibition at 50 µM: read-out: 2-point CME (% Inhibition) 50 µM. Type of experiment: cell-based. Here is the method: Using our previously reported CME assay in U2OS cells, the ability of these compounds to block endocytosis was examined (Table 5 ).^[ [48], [49] ^]
CME was examined by a high‐throughput, quantitative assay for measuring transferrin (Tfn) uptake in U2OS osteosarcoma cells, based on methods described previously.^[ [48] ^]
Compounds were made up fresh from powder stock just prior to commencing the assay, and stock solutions were stored at −20 °C for several months.

Where [4] appears, read: Table 4, library 4, n = 1 or n = 2 as footnoted, '–' = not active at 100 μM, read-out: Dynamin 1 IC50.
Where [5] appears, read: Table 4, library 4, ELISA, average of duplicate measurements (n = 2), read-out: NTD‐PPI IC50.
[6] abbreviates: Table 5, ELISA, read-out: NTD‐PPI IC50.
The mark [7] stands for this setting: Table 5, dynamin GTPase, n = 1 or n = 2 as footnoted, NA = not active at 100 μM, read-out: Dynamin 1 IC50.
The mark [8] stands for this setting: Table S1, preliminary (n=1) unless otherwise noted, NA = not active, includes IC50 > 150 μM, read-out: Dynamin 1 IC50.
Setting [9] is: Table S1, average of duplicate measurements (n=2), read-out: NTD-PPI IC50.

For orientation: IC50 means the concentration needed to halve the response being measured. In the case of `O=C1N=C(NS(=O)(=O)c2cccc3ccccc23)S/C1=C\c1ccc2c(c1)OCO2` [compound 56, (Z)‐N‐(5‐(benzo[d][1,3]dioxol‐5‐ylmethylene)‐4‐oxo‐4,5‐dihydrothiazol‐2‐yl)naphthalene‐1‐sulfonamide], the half-maximal inhibitory concentration (IC50) in experiment [1] (setting [4]) was > 100 µM; in experiment [2] (setting [5]) it was 3.2 µM; in experiment [2] (setting [6]), 3.2 µM; in experiment [2] (read-out: NTD‐PPI IC50 (ELISA)), < 5 µM and 4 µM; in experiment [3] it was 19.4 ± 10.5 µM. The “NTD‐PPI activity relative to 54” value in experiment [2] (ELISA, in words) is recorded as “threefold less active”. Besides, the “CME activity compared with Pitstop 2” value in experiment [3] (U2OS cells, in words) is “comparable”. Moreover, in experiment [3] (U2OS cells, in words), the “CME inhibition relative to dihydrobenzofuran 57” value is given as “threefold increase”.

For the compound `O=C1N=C(NS(=O)(=O)c2cccc3ccccc23)S/C1=C\c1ccc([N+](=O)[O-])cc1` [compound 13, (Z)‐N‐(5‐(4‐nitrobenzylidene)‐4‐oxo‐4,5‐dihydrothiazol‐2‐yl)naphthalene‐1‐sulfonamide], the half-maximal inhibitory concentration (IC50) in experiment [1] (Table 1, library 1, n = 1 unless noted (19: n = 2), '–' = not active at 150 μM, read-out: Dyn 1 IC50) is ~56 µM; in experiment [1] (setting [7]), 55.8 µM; in experiment [2] (Table 1, library 1, ELISA, average of duplicate measurements (n=2), read-out: NTD‐PPI IC50), 5.2 µM; in experiment [2] (setting [6]) it was 5.2 µM; in experiment [3], ~14.6 µM. In addition, the “CME activity compared with Pitstop 2” value in experiment [3] (U2OS cells, in words) is listed as “comparable”.

A word on the inhibition: it is the relative decrease from the control value, in per cent. `O=C1N=C(NS(=O)(=O)c2cccc3ccccc23)S/C1=C\c1c[nH]c2ccc(Br)cc12` [compound 65, (Z)‐N‐(5‐((5‐bromo‐1H‐indol‐3‐yl)methylene)‐4‐oxo‐4,5‐dihydrothiazol‐2‐yl)naphthalene‐1‐sulfonamide]: the IC50 in experiment [1] (setting [4]) was > 100 µM; in experiment [1] (setting [8]), > 150 µM; in experiment [2] (setting [5]) it was 2.91 µM; in experiment [2] (setting [9]) it was 2.9 µM. Besides, the inhibition at 5 µM in experiment [3] amounted to 0%. Also, in experiment [3], the inhibition at 50 µM came to 64%.

On to `O=C1N=C(NS(=O)(=O)c2cccc3ccccc23)S/C1=C\c1ccc2[nH]ccc2c1` [compound 59, (Z)‐N‐(5‐((1H‐indol‐5‐yl)methylene)‐4‐oxo‐4,5‐dihydrothiazol‐2‐yl)naphthalene‐1‐sulfonamide], for which the IC50 amounted to 83.8 ± 10.7 µM in experiment [1] (setting [4]), 3.66 µM in experiment [2] (setting [5]) and 3.7 µM in experiment [2] (setting [9]). The inhibition at 5 µM in experiment [3] is 0%. In addition, the inhibition at 50 µM in experiment [3] was 83%.

Take `O=C1N=C(NS(=O)(=O)c2cccc3ccccc23)S/C1=C\c1cn(S(=O)(=O)c2ccccc2)c2ccccc12` [compound 68, (Z)‐N‐(4‐oxo‐5‐((1‐(phenylsulfonyl)‐1H‐indol‐3‐yl)methylene)‐4,5‐dihydrothiazol‐2‐yl)naphthalene‐1‐sulfonamide]: the half-inhibitory concentration (IC50) was 99.8 ± 3.1 µM in experiment [1] (setting [4]); 99.8 ± 3.1 µM in experiment [1] (setting [7]); 27 µM in experiment [2] (setting [5]); 27 µM in experiment [2] (setting [6]); > 100 µM in experiment [3]. For the same compound, in experiment [3], the inhibition at 5 µM is 8%. The inhibition at 50 µM in experiment [3] was found to be 59%.

In the case of `O=C1N=C(NS(=O)(=O)c2cccc3ccccc23)S/C1=C\c1c[nH]c2cc(Br)ccc12` [compound 64, (Z)‐N‐(5‐((6‐bromo‐1H‐indol‐3‐yl)methylene)‐4‐oxo‐4,5‐dihydrothiazol‐2‐yl)naphthalene‐1‐sulfonamide], the 50% inhibitory concentration (IC50) is > 100 µM in experiment [1] (setting [4]), > 150 µM in experiment [1] (setting [8]), 3.42 µM in experiment [2] (setting [5]) and 3.4 µM in experiment [2] (read-out: NTD‐PPI IC50 (ELISA)). The inhibition at 5 µM in experiment [3] was found to be 17%. Also, the inhibition at 50 µM in experiment [3] worked out at 70%.

Consider `O=C1N=C(NS(=O)(=O)c2cccc3ccccc23)S/C1=C\c1ccc2nsnc2c1` [compound 58, (Z)‐N‐(5‐(benzo[c][1,2,5]thiadiazol‐5‐ylmethylene)‐4‐oxo‐4,5‐dihydrothiazol‐2‐yl)naphthalene‐1‐sulfonamide], for which the half-maximal inhibitory concentration (IC50) was ~69.3 µM in experiment [1] (setting [4]), ~69.3 µM in experiment [1] (setting [7]) and 16.8 ± 7.9 µM in experiment [3]. Moreover, the “CME activity compared with Pitstop 2” value in experiment [3] (U2OS cells, in words) is “comparable”.

Take `O=C1N=C(NS(=O)(=O)c2cccc3ccccc23)S/C1=C\c1c[nH]c2ccc(Cl)cc12` [compound 66, (Z)‐N‐(5‐((5‐chloro‐1H‐indol‐3‐yl)methylene)‐4‐oxo‐4,5‐dihydrothiazol‐2‐yl)naphthalene‐1‐sulfonamide]: the values for the IC50 in experiment [1] (setting [4]) and in experiment [1] (setting [8]) were > 100 µM and > 150 µM, respectively. Also, the inhibition at 5 µM in experiment [3] amounted to 2%.

As to `O=C1N=C(NS(=O)(=O)c2cccc3ccccc23)S/C1=C\c1ccc2c(c1)OCCO2` [compound 54, (Z)‐N‐(5‐((2,3‐dihydrobenzo[b][1,4]dioxin‐6‐yl)methylene)‐4‐oxo‐4,5‐dihydrothiazol‐2‐yl)naphthalene‐1‐sulfonamide], the IC50 came out at 60.1 ± 8.6 µM in experiment [1] (setting [4]); 60.1 ± 8.6 µM in experiment [1] (setting [7]); 60 µM in experiment [1] (values quoted in running text (section 2.2), read-out: Dynamin IC50); 1.2 µM in experiment [2] (setting [5]); 1.2 µM in experiment [2] (setting [6]); 1.16 µM in experiment [2] (read-out: NTD‐PPI IC50 (ELISA)). The 50% inhibitory concentration (IC50) in experiment [3] is ~35 µM. Further, the “fold activity increase (NTD‐PPI) relative to 56” value in experiment [2] (ELISA) is > 3 fold. The “CME activity compared with Pitstop 2” value in experiment [3] (U2OS cells, in words) was “threefold decrease”.

With `CCCC/C=C1\SC(NS(=O)(=O)c2cccc3ccccc23)=NC1=O` [compound 42, (Z)‐N‐(4‐oxo‐5‐pentylidene‐4,5‐dihydrothiazol‐2‐yl)naphthalene‐1‐sulfonamide], the half-inhibitory concentration (IC50) is > 100 µM in experiment [1] (Table 3, library 3, n = 1 unless otherwise stated (41, 42: n = 2), '–' = not active at 100 μM, read-out: Dynamin 1 IC50); > 150 µM in experiment [1] (setting [8]); 6.5 µM in experiment [2] (Table 3, library 3, ELISA, average of duplicate measurements (n = 2), read-out: NTD‐PPI IC50). Besides, the inhibition at 5 µM in experiment [3] worked out at 0%. In addition, the inhibition at 50 µM in experiment [3] stood at 31%.

In the case of `O=C1N=C(NS(=O)(=O)c2cccc3ccccc23)S/C1=C\c1c[nH]c2ccccc12` [compound 60, (Z)‐N‐(5‐((1H‐indol‐3‐yl)methylene)‐4‐oxo‐4,5‐dihydrothiazol‐2‐yl)naphthalene‐1‐sulfonamide], the IC50 in experiment [1] (setting [8]) was > 150 µM. Further, the concentration for half-maximal inhibition (IC50) in experiment [2] (setting [5]) came out at 3.2 µM. For the same compound, in experiment [3], the inhibition at 5 µM worked out at 0% and the inhibition at 50 µM amounted to 38%.

Values taken from PMC12368479, “Inhibition of the Clathrin Terminal Domain—Amphiphysin Protein–Protein Interaction. Probing the Pitstop 2 Aromatic Moiety” (Chemmedchem, 2025).
